From patent US10202379B2, “Substituted polycyclic carbamoyl pyridone derivative prodrug” (priority 2010, dated 2019)
Read-outs that look alike come from different tables or passages of the source.

Experiments:
[1] = target: Cap-dependant Endonuclease (CEN) (RNP fraction, PB1-PB2-PA complex) (Influenza A virus (strain A/Wilson-Smith/1933 H1N1) (Influenza A virus (strain A/WS/1933 H1N1)), UniProt P15659); format: biochemical, influenza A/WSN/33 virus
influenza virus = assay: microbe, parasite or virus in culture; format: cell-based; settings: MDBK or MDCK cells, 3 days, WST-8
[2] = parent compounds (Reference examples), room temperature, 60 minutes
[3] = unidentified influenza virus, 72 h, read-out: CPE EC50, parent compounds (Reference examples)
[4] = parent compounds (Reference examples), read-out: CPE EC50

SMILES	IC50 [1, 2] [µM]	EC50 (influenza virus; [3]) [µM]	IC50 [1] [µM]	EC50 (influenza virus; [4]) [µM]
COCCN1CC(C(c2ccccc2)c2ccccc2)n2cc(C(=O)O)c(=O)c(O)c2C1=O (stereo not drawn) [Example 2]	0.048	0.293		
COCCC(=O)Oc1c2n(ccc1=O)N([C@@H]1c3ccccc3SCc3c(Cl)cccc31)CN([C@H](C)C(F)(F)F)C2=O [Example 108]			0.037	0.019
C[C@@H](N1CN([C@@H]2c3ccccc3SCc3c(Cl)cccc32)n2ccc(=O)c(OCOC(=O)NCCN)c2C1=O)C(F)(F)F [Example 178]			0.061	0.075
O=C1c2c(O)c(=O)ccn2N(C2c3ccccc3CSc3ccccc32)CN1Cc1ncns1 (stereo not drawn) [Reference example 316]	0.069	0.083		
C[C@@H](CO)N1CN(C2c3ccccc3CSc3ccccc32)n2ccc(=O)c(O)c2C1=O (stereo partly drawn) [Reference example 375]	0.037	0.073		
C[C@@H](N1CN([C@@H]2c3ccccc3CSc3ccccc32)n2ccc(=O)c(O)c2C1=O)C(F)(F)F [Reference example 414]				0.131
C[C@@H](N1CN([C@@H]2c3ccccc3SCc3c(Cl)cccc32)n2ccc(=O)c(O)c2C1=O)C(F)(F)F [Reference example 417]		0.003		
C[C@@H](N1CN([C@H]2c3cc(F)ccc3CSc3ccccc32)n2ccc(=O)c(O)c2C1=O)C(F)(F)F [Reference example 441]		0.005		
C[C@@H](N1CN([C@H]2c3cc(Cl)ccc3CSc3ccccc32)n2ccc(=O)c(O)c2C1=O)C(F)(F)F [Reference example 443]		0.004		
C[C@@H](N1CN([C@H]2c3ccccc3CSc3c(F)cccc32)n2ccc(=O)c(O)c2C1=O)C(F)(F)F [Reference example 444]		0.003		
C[C@@H](N1CN([C@H]2c3ccccc3CSc3ccc(F)cc32)n2ccc(=O)c(O)c2C1=O)C(F)(F)F [Reference example 448]		0.008		
C[C@@H](N1CN([C@H]2c3ccc(F)cc3CSc3ccccc32)n2ccc(=O)c(O)c2C1=O)C(F)(F)F [Reference example 454]		0.004		
C[C@@H](N1CN([C@@H]2c3ccccc3SCc3cccc(F)c32)n2ccc(=O)c(O)c2C1=O)C(F)(F)F [Reference example 456]		0.004		
C[C@H](N1CN([C@H]2c3ccc(F)cc3CSc3ccccc32)n2ccc(=O)c(O)c2C1=O)C(F)(F)F [Reference example 460]		0.009		
C[C@@H](N1CN([C@@H]2c3ccccc3SCc3c(Br)cccc32)n2ccc(=O)c(O)c2C1=O)C(F)(F)F [Reference example 463]		0.005		
C[C@@H](N1CN([C@H]2c3cccc(F)c3CSc3c(F)cccc32)n2ccc(=O)c(O)c2C1=O)C(F)(F)F [Reference example 469]		0.004		
C[C@@H](N1CN([C@H]2c3ccc(F)cc3CSc3c(F)cccc32)n2ccc(=O)c(O)c2C1=O)C(F)(F)F [Reference example 470]		0.003		
CCN(CC)CCN1CN(C2c3ccccc3CCc3ccccc32)n2ccc(=O)c(O)c2C1=O [Reference example 490]	0.212	0.468		
COC(=O)c1cn2c(c(O)c1=O)C(=O)N1CCCCN1C2C(c1ccccc1)c1ccccc1 (stereo not drawn) [Reference example 506]	0.247	1.62		
CC(=O)N(C)CC1N(C(C)C)C(=O)c2c(O)c(=O)ccn2N1C1c2ccccc2CCc2ccccc21 (stereo not drawn) [Reference example 525]		0.09		
CC(C)N1C(=O)c2c(OCc3ccccc3)c(=O)ccn2N(C2c3ccccc3CCc3ccccc32)C1c1ccc(Cl)cc1 (stereo not drawn) [Reference example 527]			0.127	0.088
CCN(CC)CCC1N(C(C)C)C(=O)c2c(O)c(=O)ccn2N1C1c2ccccc2CCc2ccccc21 (stereo not drawn) [Reference example 538]		0.03		
CC(C)C1N(CCO)C(=O)c2c(O)c(=O)ccn2N1C1c2ccccc2CCc2ccccc21 (stereo not drawn) [Reference example 553]		0.03		
N#CCN1CN(C(c2ccccc2)c2ccccc2)n2ccc(=O)c(O)c2C1=O [Reference example 574]	0.165	0.442		
C[C@@H](N1CN([C@@H]2c3cccc(F)c3CSc3c(Cl)cccc32)n2ccc(=O)c(O)c2C1=O)C(F)(F)F [Reference example 597]		0.049	0.339	
C[C@@H](N1CN([C@@H]2c3ccc(F)cc3SCc3cccc(F)c32)n2ccc(=O)c(O)c2C1=O)C(F)(F)F [Reference example 598]	0.016	0.005		
C[C@@H](N1CN([C@@H]2c3cccc(F)c3SCc3cccc(F)c32)n2ccc(=O)c(O)c2C1=O)C(F)(F)F [Reference example 599]	0.025	0.008		
COc1cccc2c1CSc1ccccc1[C@H]2N1CN([C@H](C)C(F)(F)F)C(=O)c2c(O)c(=O)ccn21 [Reference example 600]	0.059	0.036		

SMILES	IC50 [1, 2] [µM]	EC50 (influenza virus; [3]) [µM]	IC50 [1] [µM]	EC50 (influenza virus; [4]) [µM]
C[C@@H](N1CN([C@@H]2c3cccc(Cl)c3SCc3cccc(F)c32)n2ccc(=O)c(O)c2C1=O)C(F)(F)F [Reference example 601]	0.025	0.008		
C[C@@H](N1CN([C@H]2c3ccc(F)cc3CSc3c(Cl)cccc32)n2ccc(=O)c(O)c2C1=O)C(F)(F)F [Reference example 602]	0.005	0.004		
C[C@@H](N1CN([C@H]2c3ccccc3CSc3cccc(F)c32)n2ccc(=O)c(O)c2C1=O)C(F)(F)F [Reference example 603]	0.037	0.015		
O=C1c2c(O)c(=O)ccn2N(C2c3ccccc3CSc3ccccc32)CN1C1COC1 (stereo not drawn) [Reference example 609]	0.053	0.025		
O=C1c2c(O)c(=O)ccn2N([C@H]2c3ccccc3CSc3c(F)cccc32)CN1[C@H](CO)C(F)(F)F [Reference example 611]		0.043		
Cc1cccc2c1CSc1c(Cl)cccc1[C@H]2N1CN([C@H](C)C(F)(F)F)C(=O)c2c(O)c(=O)ccn21 [Reference example 612]		0.013		
Cc1cccc2c1CSc1c(C)cccc1[C@H]2N1CN([C@H](C)C(F)(F)F)C(=O)c2c(O)c(=O)ccn21 [Reference example 613]		0.018	0.173	
Cc1cccc2c1CSc1c(F)cccc1[C@H]2N1CN([C@H](C)C(F)(F)F)C(=O)c2c(O)c(=O)ccn21 [Reference example 617]	0.053	0.017		
C[C@@H](N1CN([C@H]2c3ccccc3CSc3c(C#N)cccc32)n2ccc(=O)c(O)c2C1=O)C(F)(F)F [Reference example 618]		0.018		
C[C@@H](N1CN([C@H]2c3ccc(F)cc3CSc3c(Br)cccc32)n2ccc(=O)c(O)c2C1=O)C(F)(F)F [Reference example 619]	0.005	0.006		
C[C@@H](N1CN([C@@H]2c3cccc(F)c3SCc3cccc(Cl)c32)n2ccc(=O)c(O)c2C1=O)C(F)(F)F [Reference example 621]		0.002	0.006	
C[C@@H](N1CN([C@H]2c3cccc(F)c3SCc3cccc(Cl)c32)n2ccc(=O)c(O)c2C1=O)C(F)(F)F [Reference example 622]		0.012	0.089	
Cc1cccc2c1SCc1c(F)cccc1[C@@H]2N1CN([C@H](C)C(F)(F)F)C(=O)c2c(O)c(=O)ccn21 [Reference example 623]	0.021	0.003		
C[C@@H](N1CN([C@H]2c3ccccc3CCc3c(F)cccc32)n2ccc(=O)c(O)c2C1=O)C(F)(F)F [Reference example 628]	0.043	0.013		
O=C1c2c(O)c(=O)ccn2N(C2c3ccccc3CCc3ccccc32)CN1C1COC1 [Reference example 629]	0.089	0.064		
Cc1cccc2c1CCc1ccccc1C2N1CN([C@H](C)C(F)(F)F)C(=O)c2c(O)c(=O)ccn21 (stereo partly drawn) [Reference example 631]	0.075	0.041		
Cc1cccc2c1CCc1c(C)cccc1C2N1CN([C@H](C)C(F)(F)F)C(=O)c2c(O)c(=O)ccn21 [Reference example 632]	0.132	0.038		
C[C@@H](N1CN([C@H]2c3ccccc3CCc3cccc(F)c32)n2ccc(=O)c(O)c2C1=O)C(F)(F)F [Reference example 633]	0.053	0.022		
C[C@@H](N1CN([C@@H]2c3ccccc3CCc3c(F)cccc32)n2ccc(=O)c(O)c2C1=O)C(F)(F)F [Reference example 634]	0.103	0.017		
C[C@@H](N1CN(C2c3ccccc3CCc3cc(F)c(F)cc32)n2ccc(=O)c(O)c2C1=O)C(F)(F)F (stereo partly drawn) [Reference example 636]	0.074	0.015		
C[C@@H](N1CN(C2c3cccc(F)c3CCc3c(F)cccc32)n2ccc(=O)c(O)c2C1=O)C(F)(F)F [Reference example 638]	0.13	0.021		
C[C@@H](N1CN([C@H]2c3ccccc3CCc3c(Cl)cccc32)n2ccc(=O)c(O)c2C1=O)C(F)(F)F [Reference example 639]		0.017		
C[C@@H](N1CN(C2c3ccc(F)cc3CCc3cc(F)ccc32)n2ccc(=O)c(O)c2C1=O)C(F)(F)F [Reference example 640]	0.057	0.006		
C[C@@H](N1CN([C@@H]2c3ccccc3CCc3c(Cl)cccc32)n2ccc(=O)c(O)c2C1=O)C(F)(F)F [Reference example 641]	0.046	0.023		
COCCCC1N(CC(F)(F)F)C(=O)c2c(O)c(=O)ccn2N1C1c2ccccc2CCc2ccccc21 (stereo not drawn) [Reference example 642]		0.094	0.256	
COCCCC1N(CC(F)(F)F)C(=O)c2c(O)c(=O)ccn2N1C1c2ccc(F)cc2CCc2cc(F)ccc21 (stereo not drawn) [Reference example 643]	0.163	0.132		
C[C@@H](N1CN([C@H]2c3cccc(C(F)(F)F)c3CSc3c(F)cccc32)n2ccc(=O)c(O)c2C1=O)C(F)(F)F [Reference example 660]		0.011		
